In patent US20180311353A1, “TRIPLET-TRIPLET ANNIHILATION-BASED UPCONVERSION” (Children's Medical Center Corporation, priority 2015, published 2018):

Legend:
[1] = 530 nm LED, 150 mW cm^−2
Description: This example illustrates cell binding triggered by TTA-UC. Photo-triggered binding of NPTTA-c[R]GDfK to cells by flow cytometry and confocal microscopy, was studied with micelles in which a hydrophilic dye, Lissamine™ rhodamine B (LRB), was covalently bound to the PLA-PEG copolymer (forming PLA-PEG-LRB; FIG. 16).

[2] = Photocleavage of c[R]GDfK molecule (400 nm LED, HPLC); assay type: physicochemical; settings: PBS
Description: Construction of photo-targeted polymeric micelles. […] The identity of the peaks was further confirmed by mass spectrometry. Approximately 86% of cleavage occurred within 30 s of irradiation at 50 mW cm^−2 (FIG. 2C). At an irradiance as low as 2.3 mW cm^−2, ˜42% of c[R]GDfK was cleaved after 2 min of irradiation.
FIG. 2A. Photocleavage of c[R]GDfK. […] FIG. 2B. UV-visible absorption and fluorescence emission spectra of c[R]GDfK in PBS (pH 7.4). The excitation wavelength for the fluorescence spectrum was 385 nm. FIG. 2C. Photocleavage rate of c[R]GDfK in PBS, as determined by HPLC (detected at 390 nm), after continuous irradiation with 400 nm LED light at 2.3 mW cm^−2 and 50 mW cm^−2 (data are mean+/−SD; n=4). a.u.=arbitrary units. […]
Photocleavage of c[R]GDfK molecule. A disposable macro fluorescence cuvette containing 400 microliters of c[R]GDfK PBS solution (50 microgram/mL) was irradiated under an 11-mm LED (400 nm) collimator with a Multi-channel Universal LED controller (Mightex Systems, CA, USA). […] The LED irradiance was measured with a PM100USB Power and Energy Meter (ThorLabs, NJ, USA). At each irradiation time point, 50 microliters of the irradiated solution was analyzed by reverse-phase high-performance liquid chromatography (RP-HPLC) with an Agilent 1260 Infinity LC system and a Poroshell 120 EC-C18 column (4.6×100 mm) (Agilent Technologies, CA, USA). […]

[3] = Photocleavage of DEACM from NPTTA-c[R]GDfK (530 nm LED, centrifugal filtrate); assay type: physicochemical; settings: HPLC of filtrate
Description: Photocleavage of DEACM from NPTTA-c[R]GDfK. One milliliter of NPTTA-c[R]GDfK solution (1 mg mL^−1) was put in a quartz cuvette and irradiated with LED light (530 nm, 150 mW cm^−2). At each irradiation time, the solution was put in an Amicon® Ultra centrifugal filter (50,000 Da cut-off) and centrifuged at 4000 rmp for 15 min. […]
Photocleavage of DEACM from NPTTA-c[R]GDfK. […] At each irradiation time, the solution was transferred into an Amicon® Ultra centrifugal filter (MWCO: 50,000 Da) and centrifuged at 4000 rmp for 15 min. […]

photostable under irradiation, time [1]	c[R]GDfK cleaved ([2]; 2.3 mW cm^−2, after 2 min)	cleavage of c[R]GDfK ([2]; 50 mW cm^−2, within 30 s, 50 microgram/mL)	photocleavage of DEACM on 530 nm irradiation [3]	Compound
at least 10 min				CCN(CC)c1ccc2c(-c3ccc(S(=O)(=O)NCCN)cc3S(=O)(=O)O)c3ccc(=[N+](CC)CC)cc-3oc2c1.O=C(O)C(F)(F)F [LRB, Lissamine™ rhodamine B ethylenediamine]
	~42%	Approximately 86%	did not cleave DEACM from c[R]GDfK	c[R]GDfK
